Among the test systems are A549; CAKI-1; EKVX; HCC 2998; HOP-62; KM12; LOX IMVI; MOLT-4; NCI-H23; OVCAR-4; SF-268; SK-MEL-2; SK-MEL-5; SNB-19; UACC-62; UO-31; COLO 205; SF-539; SK-OV-3; CCRF-CEM.
Holding throughout (test): growth of human tumour cells (NCI), 48 h

The values below come from ChEMBL document CHEMBL1201862, “PubChem BioAssay data set” (2004).

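Five concentrations, 48 hours, 96-well plates. GI50: concentration for 50% inhibition of growth.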 Calls of active or inactive are those of the source. No stated cut-off is given here; in the data, active = GI50 up to about 1.1 µM and inactive = higher.

`CC1(CCOCc2ccccc2)NC(=O)NC1=O` (stereo unspecified): the GI50 in the test with A549, in the test on CAKI-1, in the test on EKVX, in the test with HCC 2998, in the test with HOP-62 and in the test on KM12 was > 100 µM (inactive) throughout. The GI50 in the test with LOX IMVI, in the test with MOLT-4, with NCI-H23, in the test on OVCAR-4, with SF-268 and in the test with SK-MEL-2 was > 100 µM (inactive) each time. Besides, the GI50 with SK-MEL-5, in the test on SNB-19, in the test with UACC-62 and with UO-31 was > 100 µM (inactive) each time.

With `COc1cc(/C=C2/C(=O)N(C(=O)OCc3ccccc3)C(Cc3cc(OC)c(OC)c(C)c3OC)C(=O)N2Cc2ccccc2)c(OC)c(C)c1OC` (stereo unspecified), the GI50 in the test with A549, in the test on CAKI-1, in the test with COLO 205, with EKVX, with HCC 2998 and in the test on HOP-62 was > 100 µM (inactive) throughout. Besides, the GI50 in the test on KM12 was > 100 µM (inactive); in the test with LOX IMVI it was > 100 µM (inactive); in the test with MOLT-4, 8.09 µM (inactive); with NCI-H23 it was > 100 µM (inactive); in the test on OVCAR-4, > 100 µM (inactive); in the test with SF-268 it was > 100 µM (inactive). In addition, the GI50 with SF-539 was > 100 µM (inactive); with SK-MEL-2, 87.3 µM (inactive); in the test on SK-MEL-5 it was 19.4 µM (inactive); in the test on SK-OV-3 it was > 100 µM (inactive); with SNB-19 it was > 100 µM (inactive); in the test on UACC-62, > 100 µM (inactive). Further, the GI50 in the test on UO-31 is > 100 µM (inactive).

For `CC1(C)CC(=O)C2=C(C1)NC1=C(C(=O)CC(C)(C)C1)C2c1ccc([N+](=O)[O-])cc1`, the GI50 in the test on A549, in the test on CAKI-1, with COLO 205, in the test with EKVX, with HCC 2998 and with HOP-62 was > 100 µM (inactive) in each case. Further, the GI50 in the test with KM12, with LOX IMVI, in the test on MOLT-4, with NCI-H23, in the test on OVCAR-4 and with SF-268 was > 100 µM (inactive) throughout. In addition, the GI50 in the test on SF-539, in the test on SK-MEL-2, in the test on SK-MEL-5, in the test with SK-OV-3, with SNB-19 and in the test with UACC-62 was > 100 µM (inactive) throughout. Further, the GI50 with UO-31 was > 100 µM (inactive).

For `Cc1sc(N/N=C2\C(=O)Nc3ccccc32)nc1-c1ccccc1`, the GI50 was 14.8 µM (inactive) in the test on A549; 17.4 µM (inactive) in the test with CAKI-1; 13.4 µM (inactive) with COLO 205; 11.1 µM (inactive) with EKVX; 22.2 µM (inactive) in the test with HCC 2998; 12 µM (inactive) in the test on HOP-62. The GI50 with KM12 is 13.6 µM (inactive); in the test on LOX IMVI, 12.6 µM (inactive); in the test on MOLT-4, 12.6 µM (inactive); in the test with NCI-H23, 16.6 µM (inactive); in the test on OVCAR-4, 13.9 µM (inactive); with SF-268 it was 13.6 µM (inactive). Further, the GI50 with SF-539 was 18.8 µM (inactive); in the test with SK-MEL-2, 18.7 µM (inactive); in the test with SK-MEL-5, 12.6 µM (inactive); in the test with SK-OV-3, 14.9 µM (inactive); in the test with SNB-19 it was 16.6 µM (inactive); in the test with UACC-62 it was 13.7 µM (inactive). Further, the GI50 in the test with UO-31 is 13.6 µM (inactive).

As to `COc1cc(Cc2nccc3cc(OC)c(OC)cc23)c(/N=N/N(C)C)cc1OC`, the GI50 with A549 is 23.4 µM (inactive); in the test on CAKI-1, 5.45 µM (inactive); with CCRF-CEM, 3.18 µM (inactive); in the test with COLO 205 it was 14.4 µM (inactive); in the test with EKVX, 14.6 µM (inactive); in the test on HCC 2998, 14.6 µM (inactive). Besides, the GI50 in the test with HOP-62 was 23.7 µM (inactive); in the test on KM12 it was 18.7 µM (inactive); with MOLT-4, 5.27 µM (inactive); in the test on NCI-H23, 19.3 µM (inactive); in the test with OVCAR-4, 20.5 µM (inactive); with SF-268, 22.1 µM (inactive). Further, the GI50 in the test on SK-MEL-2 is 30.6 µM (inactive); in the test with SK-MEL-5 it was 12.1 µM (inactive); in the test with SK-OV-3 it was 18.5 µM (inactive); in the test with SNB-19, 30.6 µM (inactive); in the test with UACC-62, 13.2 µM (inactive); in the test on UO-31, 10 µM (inactive).

Consider `C=C(CCCO)[C@@H]1CC[C@@](C)(O)[C@H]1C`, for which the GI50 in the test on A549, in the test on CAKI-1, with COLO 205, in the test on EKVX, in the test on HCC 2998 and with KM12 was > 100 µM (inactive) throughout. For the same molecule, the GI50 with MOLT-4, in the test with NCI-H23, with OVCAR-4, with SF-539, in the test on SK-MEL-2 and in the test with SK-MEL-5 was > 100 µM (inactive) throughout. Also, the GI50 was 0.885 µM (active) in the test on SK-OV-3, > 100 µM (inactive) in the test with SNB-19, > 100 µM (inactive) in the test with UACC-62 and > 100 µM (inactive) with UO-31.

As to `C[C@@]12C[C@@H](c3ccccc3O1)N1Cc3ccccc3CSC1=N2`, the GI50 in the test with CAKI-1 was > 100 µM (inactive); in the test with COLO 205, 35.2 µM (inactive); in the test with EKVX, > 100 µM (inactive); in the test with HCC 2998 it was 33.3 µM (inactive); with HOP-62, > 100 µM (inactive); with KM12, > 100 µM (inactive). The GI50 in the test on LOX IMVI was 35.5 µM (inactive); in the test on MOLT-4, 56.6 µM (inactive); with NCI-H23, > 100 µM (inactive); in the test on OVCAR-4 it was 66.1 µM (inactive); in the test with SF-268, > 100 µM (inactive); in the test on SF-539, 51.5 µM (inactive). Besides, the GI50 was > 100 µM (inactive) in the test on SK-MEL-2; 44.4 µM (inactive) in the test with SK-MEL-5; > 100 µM (inactive) in the test with SK-OV-3; > 100 µM (inactive) in the test with SNB-19; 81.5 µM (inactive) with UACC-62; > 100 µM (inactive) in the test on UO-31.

Take `O=C(Cc1nc2ccccc2o1)C(=O)Nc1ccc(Cl)cc1Cl`: the GI50 in the test on A549, in the test with CAKI-1, in the test on COLO 205, in the test with EKVX, with HCC 2998 and in the test with HOP-62 was > 100 µM (inactive) in each case. Further, the GI50 in the test on NCI-H23, with OVCAR-4, in the test with SF-268, in the test on SF-539, with SK-MEL-2 and in the test on SK-OV-3 was > 100 µM (inactive) in each case. Also, the GI50 in the test with SNB-19, with UACC-62 and in the test on UO-31 was > 100 µM (inactive) in each case.

In the case of `O=C(c1ccccc1)[C@@H]1C[C@H](Sc2ccccc2)c2cc(Cl)ccc2N1`, the GI50 in the test on A549 is 28.5 µM (inactive); in the test with CAKI-1, 42.2 µM (inactive); in the test with COLO 205, 45.5 µM (inactive); in the test with EKVX it was 10 µM (inactive); in the test on HCC 2998 it was 20.5 µM (inactive); in the test with HOP-62 it was 51.6 µM (inactive). In addition, the GI50 with KM12 was 57.5 µM (inactive); with LOX IMVI, 23.5 µM (inactive); in the test on MOLT-4 it was 7.08 µM (inactive); in the test with NCI-H23 it was 20.2 µM (inactive); in the test with OVCAR-4, 37.5 µM (inactive); in the test with SF-268 it was 19 µM (inactive). The GI50 in the test with SF-539 is 16.9 µM (inactive); with SK-MEL-2 it was 31.8 µM (inactive); in the test with SK-MEL-5, 11.7 µM (inactive); in the test on SNB-19, 43.3 µM (inactive); in the test on UACC-62, 19.5 µM (inactive); in the test with UO-31, 12.7 µM (inactive).

In the case of `Cc1cc(O)no1` [HYMEXAZOL], the GI50 in the test on A549, in the test with CAKI-1, in the test on COLO 205, with EKVX, in the test on HCC 2998 and in the test on HOP-62 was > 100 µM (inactive) each time. The GI50 in the test on LOX IMVI, in the test on NCI-H23, in the test with OVCAR-4, with SF-268, in the test with SF-539 and with SK-MEL-2 was > 100 µM (inactive) throughout. In addition, the GI50 in the test with SK-OV-3, in the test with SNB-19, in the test with UACC-62 and in the test with UO-31 was > 100 µM (inactive) in each case.

As for `O=C(O)c1cc2ccccc2c(Cc2c(O)c(C(=O)O)cc3ccccc23)c1O` [PAMOIC ACID], the GI50 in the test on A549, with CAKI-1, in the test on CCRF-CEM, in the test with EKVX, in the test with HCC 2998 and in the test on HOP-62 was > 100 µM (inactive) throughout. For the same molecule, the GI50 with KM12, in the test on LOX IMVI, in the test with MOLT-4, in the test on NCI-H23, in the test with OVCAR-4 and with SF-268 was > 100 µM (inactive) throughout. Further, the GI50 in the test on SK-MEL-2, in the test with SK-MEL-5, in the test on SNB-19, with UACC-62 and in the test with UO-31 was > 100 µM (inactive) in each case.
